In the NIST ThermoML archive (doi:10.1016/j.jct.2011.08.016):
Numbers after ± are expanded uncertainties.

Conditions: Liquid, Vibrating tube method

CCCCCCC [heptane]
mass density [kg/m3]
Conditions | 313.18 K | 333.04 K | 353.06 K
1000 kPa | 668.09 ± 0.43 | 650.66 ± 0.43 | –
1010 kPa | – | – | 632.6 ± 0.44
2000 kPa | 669.03 ± 0.44 | 651.8 ± 0.44 | 634.02 ± 0.44
3000 kPa | 669.97 ± 0.44 | 652.94 ± 0.45 | 635.41 ± 0.45
4000 kPa | 670.93 ± 0.45 | 654.08 ± 0.45 | 636.78 ± 0.46
5000 kPa | – | 655.23 ± 0.46 | 638.15 ± 0.46
5010 kPa | 671.9 ± 0.45 | – | –
6000 kPa | 672.87 ± 0.46 | 656.38 ± 0.46 | 639.47 ± 0.47
7000 kPa | 673.86 ± 0.47 | 657.54 ± 0.47 | 640.8 ± 0.48
8000 kPa | 674.87 ± 0.47 | 658.65 ± 0.48 | 642.1 ± 0.48
9000 kPa | 675.87 ± 0.48 | 659.81 ± 0.48 | –
9010 kPa | – | – | 643.4 ± 0.49
10000 kPa | 676.86 ± 0.49 | 660.92 ± 0.49 | 644.66 ± 0.5
11000 kPa | 677.85 ± 0.49 | 662.03 ± 0.5 | 645.92 ± 0.5
12000 kPa | 678.83 ± 0.5 | 663.1 ± 0.51 | 647.13 ± 0.51
13000 kPa | 679.81 ± 0.51 | 664.2 ± 0.51 | 648.37 ± 0.52
14000 kPa | 680.76 ± 0.51 | 665.25 ± 0.52 | 649.56 ± 0.53
15000 kPa | 681.7 ± 0.52 | 666.31 ± 0.53 | 650.72 ± 0.54
16000 kPa | 682.62 ± 0.53 | 667.33 ± 0.54 | 651.88 ± 0.54
17000 kPa | 683.53 ± 0.53 | 668.33 ± 0.54 | 653 ± 0.55
18000 kPa | 684.41 ± 0.54 | – | –
18030 kPa | – | 669.34 ± 0.55 | 654.12 ± 0.56
19000 kPa | 685.26 ± 0.55 | 670.26 ± 0.56 | 655.16 ± 0.57
20000 kPa | 686.11 ± 0.56 | 671.2 ± 0.57 | 656.22 ± 0.58
21000 kPa | 686.92 ± 0.57 | – | 657.27 ± 0.59
22000 kPa | 687.67 ± 0.57 | 673.01 ± 0.58 | 658.25 ± 0.59
23000 kPa | 688.42 ± 0.58 | 673.86 ± 0.59 | 659.24 ± 0.6
23910 kPa | 689.07 ± 0.59 | – | –
24000 kPa | – | 674.7 ± 0.6 | 660.2 ± 0.61
25000 kPa | 689.85 ± 0.59 | 675.52 ± 0.61 | 661.14 ± 0.62
